Each structure is given as a SMILES string.

60 compounds from the METLIN SMRT retention time set (Domingo-Almenara et al. 2019) can be followed below.

This data set can be described thus: gradient 5% acetonitrile 3 min, to 50% in 2 min, to 85% in 15 min, held 3 min, 100 µL/min. The conditions noted are these: column: Zorbax Extend-C18 2.1 x 50 mm; eluents: water / acetonitrile, 0.1% formic acid. A digest of the protocol: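 In both positive and negative ionization mode, a quadrupole time-of-flight mass spectrometer coupled to HPLC analyzed pure standards run in mixtures of ~100 molecules. The Zorbax Extend-C18 column (2.1 × 50 mm, 1.8 μm) was operated at 100 μL/min with water and acetonitrile, each containing 0.1% formic acid. The dead volume was 40 μL and the dwell volume 900 μL. Retention time came from adduct peaks that were computationally picked and individually inspected by hand.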
Compound `O=C1NCCCCCN(C(=O)Nc2ccccc2F)[C@H]2CCCC[C@@H]12` had an RP-LC retention time of 815 s.

`CC(C)NC(=O)C1CCCN(c2nc3ncn(CC(=O)Nc4ccc5c(c4)CCC5)c(=O)c3s2)C1` (stereo not given): the RP-LC retention time was 709 s.

As to `COc1ccc(NC(=O)N2CCCN(C3CCN(CC4CC4)C3=O)CC2)cc1Cl` (stereo not given), the RP-LC retention time was 569 s.

`NC(=O)[C@@H]1C[C@H](Oc2ccccc2)CN1C1CCCC1` had an RP-LC retention time of 584 s.

In the case of `O=C(NCCc1cccnc1)C1CN(S(=O)(=O)c2ccccc2)CC12CCCCC2` (stereo not given), the RP-LC retention time stood at 664 s.

With `CCn1cc(CCNC(=O)CC(C)C)c2cccnc21`, the RP-LC retention time came out at 656 s.

In the case of `CC(O)c1nc2ccccc2n1CC(=O)N(c1ccccc1)C(C)C` (stereo not given), the RP-LC retention time was determined as 647 s.

The compound `Cn1c2ccccc2c2cnn(CC(=O)N3CCN(c4ccccn4)CC3)c(=O)c21` showed an RP-LC retention time of 943 s.

In turn, `Cc1cccc(NC(=O)Nc2ccc(C)n(CC(=O)O)c2=O)c1` showed an RP-LC retention time of 721 s.

Take `CCn1cc(-c2nc(C(=O)Nc3cc(F)ccc3F)cs2)c2cccnc21`: the RP-LC retention time is 1220 s.

Regarding `O=C(Cn1ccc2ccc(N3CCOCC3)nc21)NCC1CCCCC1`, the RP-LC retention time came to 924 s.

On to `Cc1cc(C)c(S(=O)(=O)Nc2ccc(CC(=O)N3CCC(O)CC3)cc2)c(C)c1`, for which the RP-LC retention time is 676 s.

In turn, `CN1CCN(CCNC(=O)c2ccc3c(c2)N(S(=O)(=O)c2ccccc2F)CC3)CC1` yielded an RP-LC retention time of 617 s.

`COc1ccc(NC(=O)N2CCN(c3nc4ccncc4n(CC(C)C)c3=O)CC2)cc1` came in with an RP-LC retention time of 587 s.

Consider `Nc1ncnc(Nc2ccccc2Cl)c1[N+](=O)[O-]`, for which the RP-LC retention time came to 777 s.

Consider `COc1cccc(-c2noc(C3CC(=O)N(c4cc(C)cc(C)c4)C3)n2)c1OC` (stereo not given), for which the RP-LC retention time was 1020 s.

For `COc1cc(NC(=O)N2CCN(c3cc(C)nc(N4CCCC4)n3)CC2)cc(OC)c1`, the RP-LC retention time worked out at 676 s.

Compound `CCOC(=O)c1[nH]c(C)c(CCC(=O)N2CCCC(C(=O)NCc3ccc(N(C)C)cc3)C2)c1C` (stereo not given) showed an RP-LC retention time of 629 s.

`Cc1cc2c(cc(C(=O)N3CCC(C(=O)N4CCCC4)CC3)n2Cc2c(F)cccc2Cl)o1` yielded an RP-LC retention time of 897 s.

Take `CSc1cccc(N2C=C(C#N)S(=O)(=O)c3ccc(Cl)cc32)c1`: the RP-LC retention time came to 961 s.

The compound `CCc1nc(-c2csc(S(=O)(=O)N3CCCC(C(=O)N4CCOCC4)C3)c2)no1` (stereo not given) showed an RP-LC retention time of 796 s.

As to `CN1C(=O)CCc2cc(NC(=O)Cc3c(F)cccc3Cl)ccc21`, the RP-LC retention time is 784 s.

`CC(C)n1c(N2CCN(C(=O)c3ccnn3C)CC2)cc(=O)n(C(C)C)c1=O`: the RP-LC retention time came to 725 s.

Turning to `Cc1noc(-c2cc(=O)n(CC(=O)Nc3cccc(C(C)C)c3)c3ccccc23)n1`, the RP-LC retention time came to 996 s.

In the case of `Cc1ccc(CNS(=O)(=O)c2ccc3c(c2)C(=O)N(C)c2ncccc2O3)cc1C`, the RP-LC retention time is 986 s.

`Cc1cccc(NC(=O)CCCCC(=O)O)n1` gave an RP-LC retention time of 528 s.

`CCCN(C)C(=O)C1CCCN(c2cnc3nccnc3c2)C1` (stereo not given) had an RP-LC retention time of 655 s.

With `CCc1nc(N)n(CC(=O)NCc2ccc(C)cc2)c(=O)c1C`, the RP-LC retention time stood at 642 s.

On to `Fc1ccc(OCc2nc(-c3ccc4c(c3)ncn4CCN3CCCC3)no2)cc1`, for which the RP-LC retention time was found to be 657 s.

`COc1ccccc1C1(CNC(=O)Cc2cn(C)c3ccccc23)CCOCC1` yielded an RP-LC retention time of 815 s.

Consider `Cc1ccc(-n2c(=O)n(C)c(=O)c3cc(C(=O)Nc4ccc(F)cc4)cnc32)cc1`, for which the RP-LC retention time is 904 s.

For the compound `Cc1noc2ncnc(N3CCCC(C(=O)N4CCN(Cc5ccc6c(c5)OCO6)CC4)C3)c12` (stereo not given), the RP-LC retention time came to 611 s.

For `O=C(NCCCc1ccccc1)C1CCN(S(=O)(=O)c2ccc(-c3noc(C4CC4)n3)cc2)CC1`, the RP-LC retention time turned out to be 1060 s.

`Cc1oc(-c2cccc(Cl)c2)nc1Cn1c(=O)n(C(C)C)c(=O)c2ccccc21`: the RP-LC retention time came out at 1360 s.

The compound `CC[C@H](C)NC(=O)Cc1nnc(-c2ccccc2)o1` had an RP-LC retention time of 705 s.

Consider `COCCN1C(=O)[C@H]2CN(Cc3ccc(Cl)c(F)c3)C[C@H]2C1=O`, for which the RP-LC retention time was 638 s.

For `O=C1OCC/C1=C\c1ccc2c(c1)OCO2`, the RP-LC retention time is 830 s.

With `O=C(NCCN1CCOCC1)C1CCCN(c2nccnc2Sc2ccccc2)C1` (stereo not given), the RP-LC retention time was 652 s.

As to `CCOC(=O)c1sc(NC(=O)c2cccs2)nc1C`, the RP-LC retention time is 892 s.

Regarding `CCC(CC)NC(=O)C1CCCCC(=O)N1` (stereo not given), the RP-LC retention time was 652 s.

For the compound `CCN1C(=O)COc2ccc(-c3noc(-c4cc(OC)cc(OC)c4)n3)cc21`, the RP-LC retention time came out at 1040 s.

As to `Cc1noc2nc(CCC(=O)NCCCc3ccccc3)nc(N3CCOCC3)c12`, the RP-LC retention time worked out at 760 s.

In turn, `O=C1c2ccccc2C(=O)c2oc(-c3ccccc3)nc21` had an RP-LC retention time of 1150 s.

Compound `COC(=O)c1ccc(C(=O)Nc2ccncc2NC(=O)c2ccc(C(=O)OC)cc2)cc1` showed an RP-LC retention time of 646 s.

`CC(=O)c1cccc(NC(=O)c2c(F)cccc2F)c1` yielded an RP-LC retention time of 708 s.

On to `COc1cccc(S(=O)(=O)N2CCc3c(c(CN(C(C)=O)c4ccccc4)nn3C)C2)c1`, for which the RP-LC retention time is 793 s.

Regarding `Cc1ccccc1-c1nc(C2CCN(S(=O)(=O)c3cccc(F)c3)CC2)no1`, the RP-LC retention time was found to be 1160 s.

`COc1ccc(NC(=O)c2cc(C(F)(F)F)n(C)n2)c(OC)c1` yielded an RP-LC retention time of 998 s.

`COc1ncccc1CNS(=O)(=O)c1ccccc1` came in with an RP-LC retention time of 757 s.

`Cc1cc(NC(=O)C(C)Oc2ccc(-c3cnc4ccccc4n3)cc2)no1` (stereo not given) yielded an RP-LC retention time of 890 s.

Compound `CC(C)c1noc(C2(NC(=O)C3CCCC3)CCCCC2)n1` had an RP-LC retention time of 968 s.

For the compound `COc1cccc(Nc2cc(C)nc3ccnn23)c1`, the RP-LC retention time came to 610 s.

`O=C1COc2ccc(S(=O)(=O)N3CCCC3C(=O)Nc3ccc(F)c(Cl)c3)cc2N1` (stereo not given): the RP-LC retention time was found to be 845 s.

As to `O=S(=O)(c1ccc(Cl)s1)N1CCC(c2nnc(-c3ccco3)o2)CC1`, the RP-LC retention time was 868 s.

For `C=CCN1C(=O)COc2ccc(-c3csc(NC(=O)COC)n3)cc21`, the RP-LC retention time worked out at 785 s.

Regarding `O=C(NC(c1nnc(-c2ccccc2)o1)c1ccccc1Cl)c1ccco1` (stereo not given), the RP-LC retention time stood at 911 s.

`Cc1ccc(NC(=O)Cc2nnc(-c3cnccn3)o2)cc1` yielded an RP-LC retention time of 698 s.

`O=C(NCc1nc(-c2ccc3c(c2)Sc2ccccc2C(=O)N3C2CC2)no1)c1ccco1` came in with an RP-LC retention time of 861 s.

Compound `O=C1CCCc2c1cc(C(=O)NCc1ccccn1)c(=O)n2-c1ccc(C(F)(F)F)cc1` came in with an RP-LC retention time of 678 s.

The compound `CN1c2cc(Cl)ccc2C(=O)NC12CCN(C(=O)NCc1cccc(F)c1)CC2` gave an RP-LC retention time of 1010 s.
